From US9718785B2, “1,3-Disubstituted cyclopentane derivatives” (MERCK PATENT GMBH, priority 2013, dated 2017)

The compounds below were run against T1, human recombinant full-length fatty acid synthase (FASN) (Homo sapiens, UniProt P49327) (assay: Biochemical activity testing of human fatty acid synthase FASN (NADPH fluorescence intensity enzyme assay)). Conditions: human recombinant FASN, enzyme assay.
T1 construct: 40 nM human recombinant full-length fatty acid synthase (produced in-house in SF9 cells); made in house; host or cells: SF9 insect cells
Excerpt: Biochemical Activity Testing of Human Fatty Acid Synthase FASN
Fatty acid synthase FASN is a multifunctional enzyme with seven catalytic activities thereby synthesising long chain fatty acids especially palmitoyl-CoA in the presence of co-factor NADPH starting from the substrates acetyl-CoA and malonyl-CoA. The reductive synthesis is realized by the oxidation of NADPH to NADP. Since NADPH has a high fluorescence intensity quantum yield compared to NADP with excitation at 340 nm and emission at 460 nm, the reaction can be monitored via the decrease in fluorescence intensity. The biochemical FASN activity testing was performed as 384 well two-time-point kinetic fluorescence intensity assay format in Greiner low volume medium binding 384-well black microtiter plates in a total assay volume of 8 μl and was used for high throughput screen. In each well 3 μl 40 nM human recombinant full-length fatty acid synthase (produced in-house in SF9 cells) were dispensed in the following assay buffer: 50 mM potassium phosphate buffer pH 7.0, 0.005% (w/v) BSA, 2 mM Glutathione, 0.02% Tween-20. Then 2 μl of 200 μM NADPH in assay buffer were added, followed by the addition of the test compounds in 10 dilution concentrations starting with 30 μM (final concentration) to get a final DMSO content of 1% (v/v). The mixture was incubated for at least 15 min at room temperature. After the pre-incubation the enzymatic reaction was started by the addition of 2 μl substrate solution (80 μM acetyl-CoA, 240 μM malonyl-CoA). A first fluorescence intensity measurement (time point one) was performed with an Envision multimode reader (Perkin Elmer LAS Germany GmbH) at excitation wavelength 340 nm (lamp mode) and emission wavelength 460 nm. The reaction was incubated for 30 minutes at room temperature. After this the fluorescence intensity was measured again in the Envision using the same parameters as described above (second time point measurement). The data were analysed by subtracting the first time point measurement value from the second time point measurement value (after the enzymatic reaction). The differences of the emission signals were determined. These reflect directly the conversion rate of NADPH. The full value used was the inhibitor-free reaction. A pharmacological zero value was used like GSK837149A (Sigma-Aldrich) in a final concentration of 5-10 μM. The inhibitory values (IC50) were determined using either the program Symyx Assay Explorer® or Condosseo® from GeneData.

T1 sequence (P49327 whole entry): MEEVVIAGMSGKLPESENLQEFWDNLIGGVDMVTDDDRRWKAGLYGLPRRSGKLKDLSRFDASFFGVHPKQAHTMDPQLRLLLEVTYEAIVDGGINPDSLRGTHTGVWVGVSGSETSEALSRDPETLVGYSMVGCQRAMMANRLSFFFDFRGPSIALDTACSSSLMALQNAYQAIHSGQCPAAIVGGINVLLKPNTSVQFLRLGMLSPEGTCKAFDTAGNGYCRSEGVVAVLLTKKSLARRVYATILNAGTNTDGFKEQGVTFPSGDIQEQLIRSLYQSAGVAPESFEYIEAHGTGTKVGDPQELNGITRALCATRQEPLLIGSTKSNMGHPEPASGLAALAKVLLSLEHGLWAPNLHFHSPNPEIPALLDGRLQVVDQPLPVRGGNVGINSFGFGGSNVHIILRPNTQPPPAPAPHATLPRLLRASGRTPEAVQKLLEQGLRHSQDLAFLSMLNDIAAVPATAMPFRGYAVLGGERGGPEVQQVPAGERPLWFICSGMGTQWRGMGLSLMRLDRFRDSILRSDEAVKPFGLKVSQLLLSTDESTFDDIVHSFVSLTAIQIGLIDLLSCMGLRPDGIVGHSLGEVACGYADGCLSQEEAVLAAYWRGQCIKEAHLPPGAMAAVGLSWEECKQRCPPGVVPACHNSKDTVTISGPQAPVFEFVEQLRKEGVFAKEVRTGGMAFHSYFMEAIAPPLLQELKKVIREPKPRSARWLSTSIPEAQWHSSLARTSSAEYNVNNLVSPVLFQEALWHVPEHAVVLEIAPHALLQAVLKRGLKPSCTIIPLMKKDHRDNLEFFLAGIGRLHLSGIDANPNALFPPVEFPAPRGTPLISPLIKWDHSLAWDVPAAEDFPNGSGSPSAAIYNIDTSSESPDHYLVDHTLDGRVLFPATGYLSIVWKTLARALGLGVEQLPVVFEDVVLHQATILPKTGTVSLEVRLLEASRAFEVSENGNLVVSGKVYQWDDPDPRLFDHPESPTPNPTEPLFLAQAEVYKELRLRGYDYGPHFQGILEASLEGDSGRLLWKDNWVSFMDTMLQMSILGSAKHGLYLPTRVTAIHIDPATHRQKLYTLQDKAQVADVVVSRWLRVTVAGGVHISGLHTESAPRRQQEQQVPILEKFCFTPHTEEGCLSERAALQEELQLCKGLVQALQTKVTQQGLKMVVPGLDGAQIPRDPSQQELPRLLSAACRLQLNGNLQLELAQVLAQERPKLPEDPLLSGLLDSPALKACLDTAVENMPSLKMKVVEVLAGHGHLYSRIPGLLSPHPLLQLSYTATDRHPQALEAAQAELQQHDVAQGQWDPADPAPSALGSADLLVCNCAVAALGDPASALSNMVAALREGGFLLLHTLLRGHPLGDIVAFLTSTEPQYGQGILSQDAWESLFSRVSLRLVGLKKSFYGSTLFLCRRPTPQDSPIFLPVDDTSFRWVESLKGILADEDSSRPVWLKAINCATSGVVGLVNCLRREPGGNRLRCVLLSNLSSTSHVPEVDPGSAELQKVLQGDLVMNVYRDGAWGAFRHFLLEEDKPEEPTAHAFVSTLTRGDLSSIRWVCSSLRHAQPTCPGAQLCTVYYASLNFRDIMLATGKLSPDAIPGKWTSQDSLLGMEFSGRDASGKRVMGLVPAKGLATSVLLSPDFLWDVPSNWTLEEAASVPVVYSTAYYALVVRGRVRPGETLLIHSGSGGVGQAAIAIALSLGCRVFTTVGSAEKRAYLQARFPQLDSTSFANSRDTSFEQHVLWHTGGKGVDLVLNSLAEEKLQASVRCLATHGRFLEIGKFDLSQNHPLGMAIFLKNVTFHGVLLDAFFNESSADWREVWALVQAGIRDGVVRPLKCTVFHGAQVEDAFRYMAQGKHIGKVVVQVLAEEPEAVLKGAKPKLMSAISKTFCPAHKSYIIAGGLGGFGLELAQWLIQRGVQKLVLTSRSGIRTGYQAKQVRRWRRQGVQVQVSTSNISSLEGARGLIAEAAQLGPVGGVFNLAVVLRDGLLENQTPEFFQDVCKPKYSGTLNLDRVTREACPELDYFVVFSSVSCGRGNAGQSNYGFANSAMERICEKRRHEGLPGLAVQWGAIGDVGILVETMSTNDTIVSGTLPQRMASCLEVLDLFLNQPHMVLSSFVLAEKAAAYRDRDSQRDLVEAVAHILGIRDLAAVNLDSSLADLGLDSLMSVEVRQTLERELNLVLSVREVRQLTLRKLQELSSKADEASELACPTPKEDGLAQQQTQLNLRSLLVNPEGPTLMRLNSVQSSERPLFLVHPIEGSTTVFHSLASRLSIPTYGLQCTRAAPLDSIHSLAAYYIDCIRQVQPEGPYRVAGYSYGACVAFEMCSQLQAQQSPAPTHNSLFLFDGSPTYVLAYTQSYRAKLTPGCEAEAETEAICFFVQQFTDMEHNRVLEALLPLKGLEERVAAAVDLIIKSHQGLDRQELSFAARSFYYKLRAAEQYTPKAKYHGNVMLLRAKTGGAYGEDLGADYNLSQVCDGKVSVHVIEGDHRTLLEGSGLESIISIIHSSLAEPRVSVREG

IC50 [nM] | Compound
< 300 | CCC(=O)N[C@H]1CC[C@@H](n2nncc2-c2ccc(-c3ccc4ncsc4c3)cc2)C1 [Compound A60, N-{(1S,3R)-3-[5-(4-Benzothiazol-6-yl-phenyl)-[1,2,3]triazol-1-yl]-cyclopentyl}-propionamide]
< 300 | CCC(=O)N[C@H]1CC[C@@H](n2nncc2-c2ccc(-c3ccc4c(cnn4C)c3)cc2)C1 [Compound A61, N-((1S,3R)-3-{5-[4-(1-Methyl-1H-indazol-5-yl)-phenyl]-[1,2,3]triazol-1-yl}-cyclopentyl)-propionamide]
< 300 | CCC(=O)N[C@H]1CC[C@@H](n2nncc2-c2ccc(-c3ccc(C#N)cc3F)cc2)C1 [Compound A62, N-{(1S,3R)-3-[5-(4′-Cyano-2′-fluoro-biphenyl-4-yl)-[1,2,3]triazol-1-yl]-cyclopentyl}-propionamide]
< 300 | CCC(=O)N[C@H]1CC[C@@H](n2nncc2-c2ccc(-c3ccc4cnn(C)c4c3)cc2)C1 [Compound A63, N-((1S,3R)-3-{5-[4-(1-Methyl-1H-indazol-6-yl)-phenyl]-[1,2,3]triazol-1-yl}-cyclopentyl)-propionamide]
< 300 | CCC(=O)N[C@H]1CC[C@@H](n2nncc2-c2ccc(-c3ccc(-c4cnn(C)c4)cc3)cc2)C1 [Compound A64, N-((1S,3R)-3-{5-[4′-(1-Methyl-1H-pyrazol-4-yl)-biphenyl-4-yl]-[1,2,3]triazol-1-yl}-cyclopentyl)-propionamide]
< 300 | CCNC(=O)[C@H]1CC[C@@H](n2cnnc2-c2ccc(-c3ccc4ncsc4c3)cc2)C1 [Compound A65, (1S,3R)-3-[3-(4-Benzothiazol-6-yl-phenyl)-[1,2,4]triazol-4-yl]-cyclopentanecarboxylic acid ethylamide]
< 300 | O=C(N[C@H]1CC[C@@H](n2nncc2-c2ccc(-c3nc4ccccc4o3)cc2)C1)C1CC1 [Compound A66, Cyclopropanecarboxylic acid {(1S,3R)-3-[5-(4-benzooxazol-2-yl-phenyl)-[1,2,3]triazol-1-yl]-cyclopentyl}-amide]
300 to 3000 | O=C(CC1CCCC1)N[C@H]1CC[C@@H](n2nncc2-c2ccc(-c3nc4ccccc4o3)cc2)C1 [Compound A67, N-{(1S,3R)-3-[5-(4-Benzoxazol-2-yl-phenyl)-[1,2,3]triazol-1-yl]-cyclopentyl}-2-cyclopentyl-acetamide]
300 to 3000 | O=C(N[C@H]1CC[C@@H](n2nncc2-c2ccc(-c3nc4ccccc4o3)cc2)C1)[C@H]1CCCO1 [Compound A68, (R)-Tetrahydro-furan-2-carboxylic acid {(1S,3R)-3-[5-(4-benzooxazol-2-yl-phenyl)-[1,2,3]triazol-1-yl]-cyclopentyl}-amide]
< 300 | O=C(N[C@H]1CC[C@@H](n2nncc2-c2ccc(-c3nc4ccccc4o3)cc2)C1)[C@@H]1CCCO1 [Compound A69, (S)-Tetrahydro-furan-2-carboxylic acid {(1S,3R)-3-[5-(4-benzooxazol-2-yl-phenyl)-[1,2,3]triazol-1-yl]-cyclopentyl}-amide]
< 300 | CCC(=O)N[C@H]1CC[C@@H](n2nncc2-c2ccc(-c3cnc4ccccc4c3)cc2)C1 [Compound A70, N-{(1S,3R)-3-[5-(4-Quinolin-3-yl-phenyl)-[1,2,3]triazol-1-yl]-cyclopentyl}-propionamide]
< 300 | CCC(=O)N[C@H]1CC[C@@H](n2nncc2-c2ccc(-c3ccc4c(ccn4C)c3)cc2)C1 [Compound A71, N-((1S,3R)-3-{5-[4-(1-Methyl-1H-indol-5-yl)-phenyl]-[1,2,3]triazol-1-yl}-cyclopentyl)-propionamide]
< 300 | CCC(=O)N[C@H]1CC[C@@H](n2nncc2-c2ccc(-c3ccc4cn[nH]c4c3)cc2)C1 [Compound A72, N-((1S,3R)-3-{5-[4-(1H-Indazol-6-yl)-phenyl]-[1,2,3]triazol-1-yl}-cyclopentyl)-propionamide]
< 300 | CCC(=O)N[C@H]1CC[C@@H](n2nncc2-c2ccc(-c3ccc4[nH]cnc4c3)cc2)C1 [Compound A73, N-((1S,3R)-3-{5-[4-(1H-Benzimidazol-5-yl)-phenyl]-[1,2,3]triazol-1-yl}-cyclopentyl)-propionamide]
< 300 | CCC(=O)N[C@H]1CC[C@@H](n2nncc2-c2ccc(-c3ccc4[nH]ncc4c3)cc2)C1 [Compound A74, N-((1S,3R)-3-{5-[4-(1H-Indazol-5-yl)-phenyl]-[1,2,3]triazol-1-yl}-cyclopentyl)-propionamide]
< 300 | CCC(=O)N[C@H]1CC[C@@H](n2nncc2-c2ccc(-c3ccc(Cl)c(F)c3)cc2)C1 [Compound A75, N-{(1S,3R)-3-[5-(4′-Chloro-3′-fluoro-biphenyl-4-yl)-[1,2,3]triazol-1-yl]-cyclopentyl}-propionamide]
< 300 | CCC(=O)N[C@H]1CC[C@@H](n2nncc2-c2ccc(-c3ccc(-n4cccn4)cc3)cc2)C1 [Compound A76, N-{(1S,3R)-3-[5-(4′-Pyrazol-1-yl-biphenyl-4-yl)-[1,2,3]triazol-1-yl]-cyclopentyl}-propionamide]
< 300 | CCC(=O)N[C@H]1CC[C@@H](n2nncc2-c2ccc(-c3ccc4c(c3)N(C)C(=O)C4)cc2)C1 [Compound A77, N-((1S,3R)-3-{5-[4-(1-Methyl-2-oxo-2,3-dihydro-1H-indol-6-yl)-phenyl]-[1,2,3]triazol-1-yl}-cyclopentyl)-propionamide]
< 300 | CCC(=O)N[C@H]1CC[C@@H](n2nncc2-c2ccc(-c3cc4cn[nH]c4cc3C)cc2)C1 [Compound A78, N-((1S,3R)-3-{5-[4-(6-Methyl-1H-indazol-5-yl)-phenyl]-[1,2,3]triazol-1-yl}-cyclopentyl)-propionamide]
< 300 | CCC(=O)N[C@H]1CC[C@@H](n2nncc2-c2ccc(-c3ccc4c(c3)CC(=O)N4)cc2)C1 [Compound A79, N-((1S,3R)-3-{5-[4-(2-Oxo-2,3-dihydro-1H-indol-5-yl)-phenyl]-[1,2,3]triazol-1-yl}-cyclopentyl)-propionamide]
< 300 | CCC(=O)N[C@H]1CC[C@@H](n2nncc2-c2ccc(-c3ccc(C#N)c(F)c3)cc2)C1 [Compound A80, N-{(1S,3R)-3-[5-(4′-Cyano-3′-fluoro-biphenyl-4-yl)-[1,2,3]triazol-1-yl]-cyclopentyl}-propionamide]
< 300 | CCC(=O)N[C@H]1CC[C@@H](n2nncc2-c2ccc(-c3ccc(Cl)cc3F)cc2)C1 [Compound A81, N-{(1S,3R)-3-[5-(4′-Chloro-2′-fluoro-biphenyl-4-yl)-[1,2,3]triazol-1-yl]-cyclopentyl}-propionamide]
< 300 | CCC(=O)N[C@H]1CC[C@@H](n2nncc2-c2ccc(-c3ccc(OC)cc3C)cc2)C1 [Compound A82, N-{(1S,3R)-3-[5-(4′-Methoxy-2′-methyl-biphenyl-4-yl)-[1,2,3]triazol-1-yl]-cyclopentyl}-propionamide]
< 300 | CCC(=O)N[C@H]1CC[C@@H](n2nncc2-c2ccc(-c3ccc(C)c(F)c3)cc2)C1 [Compound A83, N-{(1S,3R)-3-[5-(3′-Fluoro-4′-methyl-biphenyl-4-yl)-[1,2,3]triazol-1-yl]-cyclopentyl}-propionamide]
< 300 | CCC(=O)N[C@H]1CC[C@@H](n2nncc2-c2ccc(-c3ccc(C)cc3)cc2)C1 [Compound A84, N-{(1S,3R)-3-[5-(4′-Methyl-biphenyl-4-yl)-[1,2,3]triazol-1-yl]-cyclopentyl}-propionamide]
